# Assay results published in ChEMBL document CHEMBL1134178, “Cytotoxic Michael-type amine adducts of alpha-methylene lactones alantolactone and isoalantolactone” (Bioorg Med Chem Lett, 2001).
# Assays:
# [1] = test system: K562; experiment: In vitro inhibitory activity against K562 human leukemia cell line; format: functional, cell-based
# [2] = test system: K562; experiment: Evaluated for the effect on cell cycle distribution of K562 cells following treatment of 10 x IC50 for 16 hours and percentage of cells in G1 phase was reported.; format: functional, Homo sapiens
# [3] = test system: K562; experiment: Effect on cell cycle distribution of K562 cells following treatment of 10 x IC50 for 16 hours and percentage of cells in G2/M phase was reported.; format: functional, Homo sapiens
# [4] = test system: K562; experiment: Effect on cell cycle distribution of K562 cells following treatment of 10 x IC50 for 16 hours and c.v. value was reported.; format: functional, Homo sapiens
# [5] = test system: WiDr; experiment: Inhibitory activity against WiDR colon adenocarcinoma cell line; format: functional; details: Homo sapiens, read-out: ID50 (the source's name)
# [6] = Inhibitory activity against FF1 normal skin cells; format: functional; details: Homo sapiens, read-out: ID50 (the source's name)
# [7] = test system: P388; experiment: Inhibitory activity against P388 mouse leukemia cell line; format: functional; details: read-out: ID50 (the source's name)
# [8] = test system: K562; experiment: Effect on cell cycle distribution of K562 cells following treatment of 10 x IC50 for 16 hours and percentage of apoptotic cells (cells with DNA content less than cells in G1 phase) was reported.; format: functional, Homo sapiens
# [9] = test system: MCF7; experiment: Inhibitory activity against MCF-7 breast cancer cell line; format: functional; details: Homo sapiens, read-out: ID50 (the source's name)
# [10] = test system: NCI-H460; experiment: Inhibitory activity against H460 lung cancer cell line; format: functional; details: Homo sapiens, read-out: ID50 (the source's name)
# [11] = test system: K562; experiment: Effect on cell cycle distribution of K562 cells following treatment of 10 x IC50 for 16 hours and percentage of cells in S phase was reported.; format: functional, Homo sapiens
# [12] = test system: K562; experiment: Inhibitory activity against K562 human leukemia cell line; format: functional; details: read-out: ID50 (the source's name)
# [13] = test system: COLO; experiment: Inhibitory activity against COLO skin melanoma cell line; format: functional; details: Homo sapiens, read-out: ID50 (the source's name)
# [14] = test system: BT-20; experiment: Inhibitory activity against BT20 breast cancer cell line; format: functional; details: Homo sapiens, read-out: ID50 (the source's name)
# [15] = test system: NCI-H520; experiment: Inhibitory activity against H520 lung cancer cell line; format: functional; details: Homo sapiens, read-out: ID50 (the source's name)
# [16] = test system: A549; experiment: Inhibitory activity against A549 lung cancer cell line; format: functional; details: Homo sapiens, read-out: ID50 (the source's name)
smiles,measurement,setting,value
C=C1CCC[C@]2(C)C[C@H]3OC(=O)[C@@H](CN(C)CCO)[C@H]3C[C@@H]12,IC50,[1],4000 nM
C=C1CCC[C@]2(C)C[C@H]3OC(=O)[C@@H](CN4CCCCC4)[C@H]3C[C@@H]12,IC50,[1],5000 nM
C=C1CCC[C@]2(C)C[C@H]3OC(=O)[C@@H](CN4CCCC4)[C@H]3C[C@@H]12,IC50,[1],5000 nM
C=C1CCC[C@]2(C)C[C@H]3OC(=O)[C@@H](CN4CCOCC4)[C@H]3C[C@@H]12,IC50,[1],5000 nM
C=C1CCC[C@]2(C)C[C@H]3OC(=O)[C@@H](CN(CC)CC)[C@H]3C[C@@H]12,IC50,[1],2000 nM
same,G1,[2],39%
same,G2/M,[3],10%
same,c.v,[4],4.3
same,IC50,[5],1500 nM
same,IC50,[6],1000 nM
same,IC50,[7],300 nM
same,Activity,[8],4.4%
same,IC50,[9],800 nM
same,IC50,[10],600 nM
same,S,[11],52%
same,IC50,[12],2000 nM
same,IC50,[13],3500 nM
same,IC50,[14],1200 nM
same,IC50,[15],900 nM
same,IC50,[16],800 nM
C=C1CCC[C@]2(C)C[C@H]3OC(=O)[C@@H](CN(C)C)[C@H]3C[C@@H]12,IC50,[1],3000 nM
C=C1CCC[C@]2(C)C[C@H]3OC(=O)[C@@H](CN(CCC)CCC)[C@H]3C[C@@H]12,IC50,[1],5000 nM
C=C1CCC[C@]2(C)C[C@H]3OC(=O)[C@@H](CNC)[C@H]3C[C@@H]12,IC50,[1],24000 nM
C=C1CCC[C@]2(C)C[C@H]3OC(=O)[C@@H](CN(C)C(C)C(O)c4ccccc4)[C@H]3C[C@@H]12 (stereo partly specified),IC50,[1],3000 nM
C=C1CCC[C@]2(C)C[C@H]3OC(=O)[C@@H](CNCCCN(C)C)[C@H]3C[C@@H]12,IC50,[1],6000 nM
C[C@H]1CCC[C@]2(C)C[C@H]3OC(=O)[C@@H](CN(C)C)[C@H]3C=C12,IC50,[1],2000 nM
CCN(CC)C[C@@H]1C(=O)O[C@@H]2C[C@@]3(C)CCC[C@H](C)C3=C[C@H]12,IC50,[1],700 nM
same,G1,[2],38%
same,G2/M,[3],10%
same,c.v,[4],7
same,Activity,[8],7.3%
same,S,[11],52%
C=C1CCC[C@]2(C)C[C@H]3OC(=O)[C@@H](CNCc4ccccc4)[C@H]3C[C@@H]12,IC50,[1],15000 nM
C[C@H]1CCC[C@]2(C)C[C@H]3OC(=O)[C@@H](CN4CCCCC4)[C@H]3C=C12,IC50,[1],2000 nM
C=C1C(=O)O[C@@H]2C[C@@]3(C)CCC[C@H](C)C3=C[C@H]12 [HELENINE],IC50,[1],700 nM
same,growth inhibition (GI),[2],30%
same,G2/M,[3],17%
same,c.v,[4],3.4
same,Activity,[8],9.9%
same,S,[11],53%
C=C1C(=O)O[C@@H]2C[C@@]3(C)CCCC(=C)[C@@H]3C[C@H]12 [ISOALANTOLACTONE],IC50,[1],1200 nM
same,growth inhibition (GI),[2],38%
same,G2/M,[3],12%
same,c.v,[4],3.2
same,IC50,[5],1400 nM
same,IC50,[6],1100 nM
same,IC50,[7],400 nM
same,Activity,[8],8.2%
same,IC50,[9],600 nM
same,IC50,[10],600 nM
same,S,[11],50%
same,IC50,[12],1200 nM
same,IC50,[13],2100 nM
same,IC50,[14],1200 nM
same,IC50,[15],900 nM
same,IC50,[16],600 nM
